Source: ChEMBL document CHEMBL1201862, “PubChem BioAssay data set” (2004)
Calls of active or inactive are those of the source.

Experiments:
[1] = biological target: T1, Acyl-homoserine lactone acylase PvdQ (Pseudomonas aeruginosa (strain LESB58), UniProt Q9I194); experiment: P. aeruginosa PvdQ acylase inhibitors, dose response, biochemical, fluorescence, plate reader and imaging, cherry-picks (AID 493231)
T1 sequence (Q9I194 whole entry): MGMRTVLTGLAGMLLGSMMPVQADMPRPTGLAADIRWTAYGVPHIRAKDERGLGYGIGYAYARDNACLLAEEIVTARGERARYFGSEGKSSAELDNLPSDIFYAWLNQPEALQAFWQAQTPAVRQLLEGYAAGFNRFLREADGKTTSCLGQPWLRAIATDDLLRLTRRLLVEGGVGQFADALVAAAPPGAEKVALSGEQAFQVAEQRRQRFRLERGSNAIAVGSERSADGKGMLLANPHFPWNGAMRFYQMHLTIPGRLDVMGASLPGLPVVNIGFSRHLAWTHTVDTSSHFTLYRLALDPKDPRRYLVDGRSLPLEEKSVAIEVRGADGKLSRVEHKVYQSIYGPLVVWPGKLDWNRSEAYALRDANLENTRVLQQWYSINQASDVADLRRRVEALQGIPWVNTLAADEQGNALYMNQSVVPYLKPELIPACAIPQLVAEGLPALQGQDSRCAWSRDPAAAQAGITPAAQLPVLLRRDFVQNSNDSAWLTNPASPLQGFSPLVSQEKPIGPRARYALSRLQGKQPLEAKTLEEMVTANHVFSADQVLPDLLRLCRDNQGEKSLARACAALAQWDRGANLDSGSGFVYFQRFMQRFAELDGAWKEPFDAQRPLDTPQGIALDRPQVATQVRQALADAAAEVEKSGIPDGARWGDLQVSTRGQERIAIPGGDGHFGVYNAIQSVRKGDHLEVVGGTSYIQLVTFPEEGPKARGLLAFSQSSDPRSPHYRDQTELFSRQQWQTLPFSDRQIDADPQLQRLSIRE

[2] = HIV-1 Env-mediated cell fusion inhibitors, dose response, CCR5-tropic Env (AID 2279); format: functional
Genome polyprotein = Genome polyprotein (dengue virus type 2, UniProt P29990); experiment: Dengue-2 NS5 methyltransferase inhibitors, primary screen, biochemical, confirmation dose response (AID 588689); format: functional
Chain of Genome polyprotein (P29990 2492-3391 limits assumed): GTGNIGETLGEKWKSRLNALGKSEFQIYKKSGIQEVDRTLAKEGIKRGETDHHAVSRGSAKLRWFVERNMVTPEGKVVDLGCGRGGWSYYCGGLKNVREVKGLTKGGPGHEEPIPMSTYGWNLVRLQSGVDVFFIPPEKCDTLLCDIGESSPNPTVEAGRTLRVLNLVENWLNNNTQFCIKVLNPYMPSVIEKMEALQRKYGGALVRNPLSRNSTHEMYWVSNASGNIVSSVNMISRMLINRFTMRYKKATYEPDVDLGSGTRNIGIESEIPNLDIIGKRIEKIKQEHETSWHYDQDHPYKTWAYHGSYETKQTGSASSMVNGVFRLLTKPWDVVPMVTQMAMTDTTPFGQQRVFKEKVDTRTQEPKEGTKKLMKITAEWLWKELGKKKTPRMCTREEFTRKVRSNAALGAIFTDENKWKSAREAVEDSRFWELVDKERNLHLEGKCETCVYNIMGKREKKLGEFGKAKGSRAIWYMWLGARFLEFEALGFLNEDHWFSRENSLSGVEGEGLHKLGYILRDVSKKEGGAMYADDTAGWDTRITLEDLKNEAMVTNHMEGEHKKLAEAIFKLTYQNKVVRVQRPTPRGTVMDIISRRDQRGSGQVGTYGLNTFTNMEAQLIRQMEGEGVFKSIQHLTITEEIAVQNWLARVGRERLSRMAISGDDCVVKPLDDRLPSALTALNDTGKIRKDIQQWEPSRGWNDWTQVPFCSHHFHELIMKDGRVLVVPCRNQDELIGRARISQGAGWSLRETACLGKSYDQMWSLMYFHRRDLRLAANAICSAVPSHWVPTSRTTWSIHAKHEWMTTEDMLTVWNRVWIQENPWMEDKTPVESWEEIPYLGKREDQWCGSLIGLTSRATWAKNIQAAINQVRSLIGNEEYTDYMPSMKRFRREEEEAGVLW

[3] = A cytotoxicity screen of small molecule inhibitors of the PhoP region in Salmonella typhi identified in the primary screen. [Related pubchem assays: 1850, 1864, 1985 ]; format: functional
[4] = biological target: T2, Rac GTPase-activating protein 1 (Homo sapiens, UniProt Q9H0H5); experiment: MgcRacGAP GTPase-activating activity inhibitors, confirmation, biochemical, ADP Hunter fluorescence, primary and confirmatory (AID 624330); format: functional
T2 sequence (Q9H0H5 whole entry): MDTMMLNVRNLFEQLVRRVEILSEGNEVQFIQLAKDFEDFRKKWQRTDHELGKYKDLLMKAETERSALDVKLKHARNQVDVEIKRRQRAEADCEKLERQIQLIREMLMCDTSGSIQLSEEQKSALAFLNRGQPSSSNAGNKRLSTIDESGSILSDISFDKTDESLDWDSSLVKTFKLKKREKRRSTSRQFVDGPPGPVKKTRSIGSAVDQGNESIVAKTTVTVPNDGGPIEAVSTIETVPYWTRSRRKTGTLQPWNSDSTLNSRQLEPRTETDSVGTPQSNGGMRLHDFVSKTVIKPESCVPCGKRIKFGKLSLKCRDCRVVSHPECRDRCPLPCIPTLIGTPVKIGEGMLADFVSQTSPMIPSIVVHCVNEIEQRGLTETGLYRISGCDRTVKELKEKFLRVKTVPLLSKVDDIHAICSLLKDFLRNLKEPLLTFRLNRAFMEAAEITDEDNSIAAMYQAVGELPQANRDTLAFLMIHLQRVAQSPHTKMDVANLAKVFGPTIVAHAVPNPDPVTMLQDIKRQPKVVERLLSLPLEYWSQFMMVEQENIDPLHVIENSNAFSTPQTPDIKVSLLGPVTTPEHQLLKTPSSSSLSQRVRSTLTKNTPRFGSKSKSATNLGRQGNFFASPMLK

Estrogen receptor = biological target: T3, Estrogen receptor (Homo sapiens, UniProt P03372);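 note: potency for inhibiting coactivator peptide recruitment to the receptor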
T3 sequence (P03372 whole entry): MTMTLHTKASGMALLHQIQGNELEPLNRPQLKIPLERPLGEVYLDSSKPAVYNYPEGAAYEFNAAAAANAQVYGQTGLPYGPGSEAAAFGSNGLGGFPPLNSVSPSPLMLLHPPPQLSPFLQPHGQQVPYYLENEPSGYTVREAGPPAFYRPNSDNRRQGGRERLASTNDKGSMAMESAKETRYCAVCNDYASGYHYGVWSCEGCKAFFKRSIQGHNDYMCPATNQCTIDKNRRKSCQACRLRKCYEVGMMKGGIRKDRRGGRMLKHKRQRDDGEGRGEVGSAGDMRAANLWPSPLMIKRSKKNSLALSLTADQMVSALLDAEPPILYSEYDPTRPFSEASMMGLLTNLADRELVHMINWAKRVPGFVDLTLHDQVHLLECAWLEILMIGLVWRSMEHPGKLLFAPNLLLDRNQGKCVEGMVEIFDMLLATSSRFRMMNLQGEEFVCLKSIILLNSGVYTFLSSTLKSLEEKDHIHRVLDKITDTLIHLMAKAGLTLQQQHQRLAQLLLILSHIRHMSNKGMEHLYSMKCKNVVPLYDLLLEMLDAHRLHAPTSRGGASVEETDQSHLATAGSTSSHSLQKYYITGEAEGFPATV

Aminopeptidase N = biological target: T4, Aminopeptidase N (Plasmodium falciparum FcB1/Columbia, UniProt O96935); experiment: P. falciparum M1AAP inhibitors, biochemical, fluorogenic H-Leu-NHMec substrate, 1536-well (AID 1445); set-up: species or system Plasmodium falciparum 3D7, 3D7
T4 sequence (O96935 whole entry): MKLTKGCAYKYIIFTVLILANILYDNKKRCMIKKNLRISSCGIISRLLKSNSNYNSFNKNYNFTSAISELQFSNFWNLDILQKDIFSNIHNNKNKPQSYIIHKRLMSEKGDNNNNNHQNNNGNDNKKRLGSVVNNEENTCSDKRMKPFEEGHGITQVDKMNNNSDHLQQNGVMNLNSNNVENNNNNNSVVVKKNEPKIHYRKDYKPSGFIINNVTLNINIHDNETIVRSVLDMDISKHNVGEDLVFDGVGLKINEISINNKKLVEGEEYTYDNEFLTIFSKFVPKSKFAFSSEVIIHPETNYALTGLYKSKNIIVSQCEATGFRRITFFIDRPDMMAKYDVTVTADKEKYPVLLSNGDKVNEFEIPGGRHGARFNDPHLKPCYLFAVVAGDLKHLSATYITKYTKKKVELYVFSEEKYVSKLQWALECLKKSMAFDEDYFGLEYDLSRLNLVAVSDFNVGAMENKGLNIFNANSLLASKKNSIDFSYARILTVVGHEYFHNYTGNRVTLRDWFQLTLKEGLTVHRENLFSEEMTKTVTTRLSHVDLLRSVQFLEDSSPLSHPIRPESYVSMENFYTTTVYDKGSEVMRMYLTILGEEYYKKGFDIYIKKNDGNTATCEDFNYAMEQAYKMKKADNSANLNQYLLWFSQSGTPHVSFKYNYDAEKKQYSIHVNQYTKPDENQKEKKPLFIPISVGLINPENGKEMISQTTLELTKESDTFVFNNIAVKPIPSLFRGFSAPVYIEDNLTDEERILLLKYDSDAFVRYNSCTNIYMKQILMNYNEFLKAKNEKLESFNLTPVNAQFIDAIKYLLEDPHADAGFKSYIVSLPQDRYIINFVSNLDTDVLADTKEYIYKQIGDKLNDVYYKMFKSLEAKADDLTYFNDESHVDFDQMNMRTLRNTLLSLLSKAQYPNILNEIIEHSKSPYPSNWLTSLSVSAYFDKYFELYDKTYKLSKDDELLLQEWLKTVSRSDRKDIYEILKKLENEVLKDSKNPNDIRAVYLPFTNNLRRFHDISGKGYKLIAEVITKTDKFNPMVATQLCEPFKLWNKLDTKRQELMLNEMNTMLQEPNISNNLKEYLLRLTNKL

[5] = biological target: T5, Calpain-2 catalytic subunit (Sus scrofa, UniProt P43367); experiment: pig calpain II inhibitor potency, dose response, biochemical, fluorogenic peptide substrate (AID 1420); format: functional
T5 sequence (P43367 whole entry): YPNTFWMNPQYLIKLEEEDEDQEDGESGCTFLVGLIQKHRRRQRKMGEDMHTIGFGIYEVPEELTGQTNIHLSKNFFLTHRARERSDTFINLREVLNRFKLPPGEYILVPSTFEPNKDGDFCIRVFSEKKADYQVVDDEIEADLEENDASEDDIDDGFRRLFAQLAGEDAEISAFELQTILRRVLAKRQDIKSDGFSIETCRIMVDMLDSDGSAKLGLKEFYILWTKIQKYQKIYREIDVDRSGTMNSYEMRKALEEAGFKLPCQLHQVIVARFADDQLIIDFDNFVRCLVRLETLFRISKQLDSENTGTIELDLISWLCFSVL

[6] = biological target: Induced myeloid leukemia cell differentiation protein Mcl-1 (Homo sapiens, UniProt Q07820); format: functional
Chain of Induced myeloid leukemia cell differentiation protein Mcl-1 (Q07820 whole entry): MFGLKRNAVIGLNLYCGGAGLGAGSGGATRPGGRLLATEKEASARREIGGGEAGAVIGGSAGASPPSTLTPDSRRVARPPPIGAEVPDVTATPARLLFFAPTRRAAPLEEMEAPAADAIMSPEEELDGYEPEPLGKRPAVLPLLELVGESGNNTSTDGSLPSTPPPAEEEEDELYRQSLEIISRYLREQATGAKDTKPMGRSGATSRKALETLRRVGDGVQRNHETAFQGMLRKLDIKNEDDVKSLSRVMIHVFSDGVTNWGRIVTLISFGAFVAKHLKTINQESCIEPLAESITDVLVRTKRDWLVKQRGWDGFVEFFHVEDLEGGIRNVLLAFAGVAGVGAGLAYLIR

[7] = biological target: T6, Replicative DNA helicase DnaB (Mycobacterium tuberculosis, UniProt P9WMR3); experiment: DnaB intein splicing inhibitors, dose response, biochemical, cell-free fluorescence (AID 449749); format: functional
T6 sequence (P9WMR3 whole entry): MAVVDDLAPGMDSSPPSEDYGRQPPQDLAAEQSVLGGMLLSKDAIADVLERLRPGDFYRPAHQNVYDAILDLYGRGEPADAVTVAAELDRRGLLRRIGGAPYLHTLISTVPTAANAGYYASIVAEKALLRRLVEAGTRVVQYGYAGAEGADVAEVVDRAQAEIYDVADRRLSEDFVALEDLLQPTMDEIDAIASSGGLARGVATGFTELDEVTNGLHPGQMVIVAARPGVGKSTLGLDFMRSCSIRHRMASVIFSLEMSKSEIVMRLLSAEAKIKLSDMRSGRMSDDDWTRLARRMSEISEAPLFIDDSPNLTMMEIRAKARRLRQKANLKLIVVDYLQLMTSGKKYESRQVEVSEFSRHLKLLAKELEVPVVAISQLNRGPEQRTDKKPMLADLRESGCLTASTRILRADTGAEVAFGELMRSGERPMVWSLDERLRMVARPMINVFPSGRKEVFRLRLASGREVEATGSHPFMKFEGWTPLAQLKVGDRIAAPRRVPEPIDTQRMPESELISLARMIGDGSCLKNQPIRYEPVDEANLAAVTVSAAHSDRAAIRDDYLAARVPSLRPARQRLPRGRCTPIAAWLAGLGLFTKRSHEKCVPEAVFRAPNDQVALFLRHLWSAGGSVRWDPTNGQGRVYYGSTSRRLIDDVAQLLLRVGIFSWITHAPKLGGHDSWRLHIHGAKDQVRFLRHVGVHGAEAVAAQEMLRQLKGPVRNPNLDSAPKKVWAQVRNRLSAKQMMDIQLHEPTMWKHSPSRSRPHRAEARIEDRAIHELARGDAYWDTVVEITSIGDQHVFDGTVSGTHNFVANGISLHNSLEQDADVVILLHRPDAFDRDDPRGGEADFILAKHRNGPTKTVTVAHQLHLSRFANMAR

Protein RecA = biological target: T7, Protein RecA (Mycobacterium tuberculosis, UniProt P9WHJ3); experiment: Fluorescence Cell-Free Homogeneous Dose Retest to Identify Inhibitors of RecA-Intein Splicing Activity. [Related pubchem assays (depositor defined):AID2097, AID2223, AID489010, AID492950]; format: functional
T7 sequence (P9WHJ3 whole entry): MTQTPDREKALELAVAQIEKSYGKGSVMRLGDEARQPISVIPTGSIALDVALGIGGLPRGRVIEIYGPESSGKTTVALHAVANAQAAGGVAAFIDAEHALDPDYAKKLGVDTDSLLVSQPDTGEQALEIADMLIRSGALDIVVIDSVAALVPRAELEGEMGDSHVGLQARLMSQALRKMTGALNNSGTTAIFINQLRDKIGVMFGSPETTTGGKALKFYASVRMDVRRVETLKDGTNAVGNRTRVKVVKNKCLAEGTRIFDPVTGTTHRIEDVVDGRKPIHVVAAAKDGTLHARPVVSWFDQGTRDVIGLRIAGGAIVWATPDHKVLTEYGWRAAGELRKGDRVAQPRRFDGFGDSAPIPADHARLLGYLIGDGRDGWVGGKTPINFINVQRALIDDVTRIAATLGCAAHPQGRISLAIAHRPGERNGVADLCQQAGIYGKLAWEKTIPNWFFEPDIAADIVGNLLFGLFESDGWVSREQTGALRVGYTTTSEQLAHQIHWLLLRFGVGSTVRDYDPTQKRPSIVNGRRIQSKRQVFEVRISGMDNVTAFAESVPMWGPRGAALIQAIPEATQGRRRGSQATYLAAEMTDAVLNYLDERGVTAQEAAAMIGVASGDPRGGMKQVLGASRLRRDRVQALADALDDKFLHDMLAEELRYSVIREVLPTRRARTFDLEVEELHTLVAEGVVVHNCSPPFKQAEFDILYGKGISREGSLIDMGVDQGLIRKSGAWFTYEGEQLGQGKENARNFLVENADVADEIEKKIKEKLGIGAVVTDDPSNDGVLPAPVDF

O=C(O)CCc1nc(-c2ccc(Cl)cc2)no1
AC50 [1]: 16.1 µM (active)

O=C1C2C3C=CC(C4CC34)C2C(=O)N1Cc1ccco1 (stereo not drawn)
AC50 [1]: 12.4 µM (active)

O=C1C=C(c2cccc(Br)c2)C[C@@H](c2ccc(F)cc2)C1
AC50 [1]: 48.9 µM (active)

O=C(CCN1C(=O)/C(=C\C=C\c2ccccc2)SC1=S)Nc1ccccc1C(=O)O
IC50 [2]: > 50 µM (active)
IC50 (Genome polyprotein): 64.3 µM (active)

Cc1ccc(NC(=O)CN(C)C2CCCCC2)cc1Br
EC50 [3]: > 50 µM (active)
IC50 [4]: 137 µM (active)

CCN(CC)c1ccc(CNc2nc3ccccc3n2C)cc1
EC50 [3]: > 50 µM (active)

COc1ccc(N2CCN(C(CNC(=O)c3ccc4c(c3)OCO4)c3ccco3)CC2)cc1 (stereo not drawn)
EC50 [3]: > 50 µM (active)

CCC(C)n1nc(O)cc1N (stereo not drawn)
IC50 (Estrogen receptor): > 50 µM (not active)

N#Cc1cc(-c2ccccc2)cnc1Cl
AC50 [1]: 6.29 µM (active)

C=C(C)Cn1c(SCC#N)nc2ccccc2c1=O
EC50 [3]: > 50 µM (active)

COc1cc(/C=C2/SC(=S)NC2=O)ccc1OS(=O)(=O)c1ccc(C)cc1
IC50 (Aminopeptidase N): 51.8 µM (active)
IC50 [2]: 10.3 µM (active)
IC50 [5]: 13.4 µM (not active)
IC50 [6]: 3.44 µM (active)
AC50 [7]: 3.21 µM (active)
EC50 (Protein RecA): 11.9 µM (active)
